According to patent US3955959A, “Herbicide for use in transplanted rice” (priority 1974, dated 1976):

How the values were obtained:
transplanted rice [1] = assay: Example 1 field test, rice yield; type: in vivo, rice (Watanabe variety)
Excerpt: In the field test 48 day-old seedlings (Watanabe variety) were transplanted to plots 2.5 × 6 m. seeded with the weed seeds indicated in Table 1. At 5 and 10 DAT periods, the herbicides were applied to the plants (now at the 1.2 and 2.0 leaf stage, respectively, of grass weed) at the indicated rate in kilograms per hectare (kg/ha). The weed control and rice injury results for 3 replications are reported in percentages as of the indicated times of observation. The percentages given in the "Perennials" column are based on the weight of the weeds at 63 DAT, i.e., 42 gms/3.6 m^2 for the weedy check.

Echinochloa crusgalli = assay: Example 2 field test, weed control, Chia Yi, Taiwan; type: in vivo; conditions: obs. 63 DAT
Method: (§6) In the field tests of the herbicide of this invention with transplanted rice, the rice seedlings were grown in conventional manner, by seeding the rice in a typical seedbed of sandy loam to clay soil of the country wherein the test was conducted. For laboratory and greenhouse work the seedlings were obtained by seeding rice in a mixture of soil, e.g., Ray silt loam, and peat in wood flats. For purposes of testing the herbicides on younger rice seedlings (infant or Dapog) the rice was usually allowed to grow for 6-15 days before lifting for transplanting. Older (ordinary) rice plants were usually grown for a period of about 2-3 weeks, or as much as about 7 weeks before lifting. Since the period of growth is dependent upon climatic conditions, a better measure of when to transplant the rice seedling is the leaf stage of growth; for infant or Dapog rice the seedling is lifted at the 1.5-2 leaf stage of growth, and for ordinary seedlings at the 2.5-5 leaf stage. The seedlings were then transplanted to the test plots for evaluation of the herbicide for injury against weed species present with the transplanted rice. The herbicides were then applied to the growth medium of the weeds and transplant rice, either preemergent or postemergent with respect to the weeds and postemergent with respect to the transplanted rice. […] Application rates given in the tables refer to the amount of active ingredient used.

Cyperus difformis = assay: as above; type: in vivo; conditions: obs. 63 DAT
Method: as §6

transplanted rice [2] = assay: Example 2 field test, rice yield; type: in vivo, rice (Tainan No. 5, japonica)
Method: (§1) In the tests described in the tables below, the herbicides were formulated and used in granular form in conventional manner. […] The commercial herbicide used was a granular product having 5% active ingredient.
(§2) In the field tests of the herbicide of this invention with transplanted rice, the rice seedlings were grown in conventional manner, by seeding the rice in a typical seedbed of sandy loam to clay soil of the country wherein the test was conducted. For laboratory and greenhouse work the seedlings were obtained by seeding rice in a mixture of soil, e.g., Ray silt loam, and peat in wood flats. For purposes of testing the herbicides on younger rice seedlings (infant or Dapog) the rice was usually allowed to grow for 6-15 days before lifting for transplanting. Older (ordinary) rice plants were usually grown for a period of about 2-3 weeks, or as much as about 7 weeks before lifting. Since the period of growth is dependent upon climatic conditions, a better measure of when to transplant the rice seedling is the leaf stage of growth; for infant or Dapog rice the seedling is lifted at the 1.5-2 leaf stage of growth, and for ordinary seedlings at the 2.5-5 leaf stage. The seedlings were then transplanted to the test plots for evaluation of the herbicide for injury against weed species present with the transplanted rice. The herbicides were then applied to the growth medium of the weeds and transplant rice, either preemergent or postemergent with respect to the weeds and postemergent with respect to the transplanted rice. Application times are designated in the tables as "DAT", meaning "days after transplant". Application rates given in the tables refer to the amount of active ingredient used.
Rice seedlings (ordinary) of Tainan No. 5 variety (japonica) were transplanted at 19 days of growth. Granular formulations of Herbicides A and B were applied at the 1 leaf stage of grass weed (4 DAT) and 2.5 leaf stage of grass weed (10 DAT). Observations were made at 63 DAT and results reported in Table 2 as an average of 3 replications.

[3] = test system: Grass: Ec and Ecol (Echinochloa crusgalli, Echinochloa colonum); assay: Example 3 field test on Dapog rice, weed control, Munoz, Philippines; type: in vivo; conditions: obs. 42 DAT
Excerpt: (§3) Treatments were replicated four times.

[4] = test system: Sedges: Cd, Ci, Fl (Cyperus difformis, Cyperus iria, Fimbristylis littoralis); assay: as above; type: in vivo; conditions: obs. 42 DAT
Excerpt: as §3

Dapog transplanted rice = assay: Example 3 field test, rice yield; type: in vivo
Method: as §1, §2
Eleven (11) day-old Dapog seedlings were transplanted and treated at 5 DAT and 14 DAT with Herbicides A and B. The plots were overseeded with Echinochloa crusgalli seeds at 2 kgs/ha prior to transplanting. Treatments were replicated four times.

[5] = test system: Grass: Ec and Ecol (Echinochloa crusgalli, Echinochloa colonum); assay: Example 4 field test on ordinary rice, weed control, Munoz, Philippines; type: in vivo; conditions: obs. 36 DAT
Excerpt: as §3

[6] = test system: Sedges: Cd, Ci, Fl (Cyperus difformis, Cyperus iria, Fimbristylis littoralis); assay: as above; type: in vivo; conditions: obs. 36 DAT
Excerpt: as §3

[7] = test system: Broadleaf: Mv, Sz (Monochoria vaginalis, Sphenoclea zeylanica); assay: as above; type: in vivo, Monochoria vaginalis and Sphenoclea zeylanica; conditions: obs. 36 DAT
Excerpt: as §3

[8] = test system: transplanted rice (ordinary and infant seedlings); assay: Example 5 field test, rice injury; conditions: 1.5 kg/ha, 7 DAT
Method: as §1, §2
(§4) The rice seedlings were grown to the 1.7 leaf stage for infant seedlings and to the 5.5 leaf stage for ordinary seedlings. Two days after puddling the soil in which the seedlings were to be transplanted, both infant and ordinary seedlings were transplanted into plots 8.5 m^2.
(§5) The weed symbol "Obw" represents "other broadleaf weeds" of unspecified identity. Results presented in Table 5 represent the average of 2 replications.

[9] = test system: transplanted rice (ordinary and infant seedlings); assay: Example 5 field test, rice yield; type: in vivo; conditions: 1.5 kg/ha, 7 DAT
Method: as §1, §2, §4, §5

In the case of `CCCCOCN(C(=O)CCl)c1c(CC)cccc1CC` [Herbicide B, n-(butoxymethyl)-2',6'-diethyl-2-chloroacetanilide, reference compound], the yield depression (transplanted rice [1]; 1.0 kg/ha) is reported as “significant yield depression”, the “Yield (% of Hand-weeded Check)” value (transplanted rice [1]; 5 DAT, 1.0 kg/ha) is reported as 95% and the “Yield (% of Hand-weeded Check)” value (transplanted rice [1]; 5 DAT, 1.5 kg/ha) is reported as 100%. For the same compound, the “Yield (% of Hand-weeded Check)” value (transplanted rice [1]; 5 DAT, 3.0 kg/ha) was 99%, the “Yield (% of Hand-weeded Check)” value (transplanted rice [1]; 10 DAT, 1.0 kg/ha) was 95% and the “Yield (% of Hand-weeded Check)” value (transplanted rice [1]; 10 DAT, 1.5 kg/ha) was 97%. For the same compound, the “Yield (% of Hand-weeded Check)” value (transplanted rice [1]; 10 DAT, 3.0 kg/ha) was 100%, the “% Weed Control (Echinochloa crusgalli)” value (Echinochloa crusgalli; 4 DAT, 1.0 kg/ha) was 65% and the “% Weed Control (Echinochloa crusgalli)” value (Echinochloa crusgalli; 4 DAT, 1.5 kg/ha) was 92%. For the same compound, the “% Weed Control (Echinochloa crusgalli)” value (Echinochloa crusgalli; 4 DAT, 3.0 kg/ha) was 97%, the “% Weed Control (Echinochloa crusgalli)” value (Echinochloa crusgalli; 10 DAT, 1.0 kg/ha) was 77% and the “% Weed Control (Echinochloa crusgalli)” value (Echinochloa crusgalli; 10 DAT, 1.5 kg/ha) was 78%. For the same compound, the “% Weed Control (Echinochloa crusgalli)” value (Echinochloa crusgalli; 10 DAT, 3.0 kg/ha) was 98%, the “% Weed Control (Cyperus difformis)” value (Cyperus difformis; 4 DAT, 1.0 kg/ha) was 100% and the “% Weed Control (Cyperus difformis)” value (Cyperus difformis; 4 DAT, 1.5 kg/ha) was 100%. The “% Weed Control (Cyperus difformis)” value (Cyperus difformis; 4 DAT, 3.0 kg/ha) was 100%, the “% Weed Control (Cyperus difformis)” value (Cyperus difformis; 10 DAT, 1.0 kg/ha) was 100% and the “% Weed Control (Cyperus difformis)” value (Cyperus difformis; 10 DAT, 1.5 kg/ha) was 100%. For the same compound, the “% Weed Control (Cyperus difformis)” value (Cyperus difformis; 10 DAT, 3.0 kg/ha) was 100%, the “Yield (% of H.W. Check)” value (transplanted rice [2]; 4 DAT, 1.0 kg/ha) was 110% and the “Yield (% of H.W. Check)” value (transplanted rice [2]; 4 DAT, 1.5 kg/ha) was 103%. For the same compound, the “Yield (% of H.W. Check)” value (transplanted rice [2]; 4 DAT, 3.0 kg/ha) was 99%, the “Yield (% of H.W. Check)” value (transplanted rice [2]; 10 DAT, 1.0 kg/ha) was 97% and the “Yield (% of H.W. Check)” value (transplanted rice [2]; 10 DAT, 1.5 kg/ha) was 98%. For the same compound, the “Yield (% of H.W. Check)” value (transplanted rice [2]; 10 DAT, 3.0 kg/ha) was 99%, the “% Weed control, Grass (Ec and Ecol)” value ([3]; 5 DAT, 1.0 kg/ha) was 100% and the “% Weed control, Grass (Ec and Ecol)” value ([3]; 5 DAT, 1.5 kg/ha) was 100%. For the same compound, the “% Weed control, Grass (Ec and Ecol)” value ([3]; 5 DAT, 3.0 kg/ha) was 100%, the “% Weed control, Grass (Ec and Ecol)” value ([3]; 14 DAT, 1.0 kg/ha) was 0% and the “% Weed control, Grass (Ec and Ecol)” value ([3]; 14 DAT, 1.5 kg/ha) was 0%. The “% Weed control, Grass (Ec and Ecol)” value ([3]; 14 DAT, 3.0 kg/ha) was 60%, the “% Weed control, Sedges (Cd, Ci, Fl)” value ([4]; 5 DAT, 1.0 kg/ha) was 100% and the “% Weed control, Sedges (Cd, Ci, Fl)” value ([4]; 5 DAT, 1.5 kg/ha) was 100%. The “% Weed control, Sedges (Cd, Ci, Fl)” value ([4]; 5 DAT, 3.0 kg/ha) was 100%, the “% Weed control, Sedges (Cd, Ci, Fl)” value ([4]; 14 DAT, 1.0 kg/ha) was 0% and the “% Weed control, Sedges (Cd, Ci, Fl)” value ([4]; 14 DAT, 1.5 kg/ha) was 0%. The “% Weed control, Sedges (Cd, Ci, Fl)” value ([4]; 14 DAT, 3.0 kg/ha) was 70%, the yield vs control (Dapog transplanted rice; 1 kg/ha, 5 DAT) was “significantly higher than the control” and the “Yield (% of H.W. Check)” value (Dapog transplanted rice; 5 DAT, 1.0 kg/ha) was 142%. For the same compound, the “Yield (% of H.W. Check)” value (Dapog transplanted rice; 5 DAT, 1.5 kg/ha) was 107%, the “Yield (% of H.W. Check)” value (Dapog transplanted rice; 5 DAT, 3.0 kg/ha) was 101% and the “Yield (% of H.W. Check)” value (Dapog transplanted rice; 14 DAT, 1.0 kg/ha) was 83%. For the same compound, the “Yield (% of H.W. Check)” value (Dapog transplanted rice; 14 DAT, 1.5 kg/ha) was 89%, the “Yield (% of H.W. Check)” value (Dapog transplanted rice; 14 DAT, 3.0 kg/ha) was 93% and the “% Weed control, Grass (Ec and Ecol)” value ([5]; 5 DAT, 1.0 kg/ha) was 100%. The “% Weed control, Grass (Ec and Ecol)” value ([5]; 5 DAT, 1.5 kg/ha) was 100%, the “% Weed control, Grass (Ec and Ecol)” value ([5]; 5 DAT, 3.0 kg/ha) was 100% and the “% Weed control, Grass (Ec and Ecol)” value ([5]; 14 DAT, 1.0 kg/ha) was 0%. For the same compound, the “% Weed control, Grass (Ec and Ecol)” value ([5]; 14 DAT, 1.5 kg/ha) was 0%, the “% Weed control, Grass (Ec and Ecol)” value ([5]; 14 DAT, 3.0 kg/ha) was 50% and the “% Weed control, Sedges (Cd, Ci, Fl)” value ([6]; 5 DAT, 1.0 kg/ha) was 100%. The “% Weed control, Sedges (Cd, Ci, Fl)” value ([6]; 5 DAT, 1.5 kg/ha) was 100%, the “% Weed control, Sedges (Cd, Ci, Fl)” value ([6]; 5 DAT, 3.0 kg/ha) was 100% and the “% Weed control, Sedges (Cd, Ci, Fl)” value ([6]; 14 DAT, 1.0 kg/ha) was 0%. For the same compound, the “% Weed control, Sedges (Cd, Ci, Fl)” value ([6]; 14 DAT, 1.5 kg/ha) was 0%, the “% Weed control, Sedges (Cd, Ci, Fl)” value ([6]; 14 DAT, 3.0 kg/ha) was 50% and the “% Weed control, Broadleaf (Mv,Sz)” value ([7]; 5 DAT, 1.0 kg/ha) was 100%. For the same compound, the “% Weed control, Broadleaf (Mv,Sz)” value ([7]; 5 DAT, 1.5 kg/ha) was 100%, the “% Weed control, Broadleaf (Mv,Sz)” value ([7]; 5 DAT, 3.0 kg/ha) was 100% and the “% Weed control, Broadleaf (Mv,Sz)” value ([7]; 14 DAT, 1.0 kg/ha) was 0%. The “% Weed control, Broadleaf (Mv,Sz)” value ([7]; 14 DAT, 1.5 kg/ha) was 0%, the “% Weed control, Broadleaf (Mv,Sz)” value ([7]; 14 DAT, 3.0 kg/ha) was 50% and the Injury ([8]; infant seedlings) was 10. The Injury ([8]; ordinary seedlings) was 5, the “Yield % of H.W.C.” value ([9]; infant seedlings) was 99% and the “Yield % of H.W.C.” value ([9]; ordinary seedlings) was 92%.
